From the supplement of paper PMC10949913
“And” between values parts separate entries of the source, which are not always exact repeats. Equal entries are not always repeated.

Tests used:
Conditions in all cases: 48 h
CU-ACC2 [1] = assay: area under concentration-response curve (viability) (AUC (a.u.)); higher = less active
Method in brief: (§1)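 Library compounds were dispensed at 11 concentrations (23 nL each) onto three adrenocortical carcinoma cell lines in 1,536-well plates. Luminescence was recorded after 48 h using CellTiter-Glo, and signals were normalised per plate to vehicle and empty-well controls. Fitted concentration-response curves of inhibitory or non-responding classes only supplied the AC50 and area under the curve.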

NCI-H295R [2] = assay: as above
Method in brief: as §1

CU-ACC1 [3] = assay: as above
Method in brief: as §1

CU-ACC2 [4] = assay: AC50 viability; higher = less potent
Method in brief: as §1

NCI-H295R [5] = assay: AC50 viability; higher = less potent
Method in brief: as §1

CU-ACC1 [6] = assay: AC50 viability; higher = less potent
Method in brief: as §1

SMILES	area under concentration-response curve (CU-ACC2 [1])	area under concentration-response curve (NCI-H295R [2])	area under concentration-response curve (CU-ACC1 [3])	AC50 viability (CU-ACC2 [4]) [µM]	AC50 viability (NCI-H295R [5]) [µM]	AC50 viability (CU-ACC1 [6]) [µM]
N#Cc1c(C2CCNCC2)cc(-c2c(O)cccc2OCC2CC2)nc1N	269	275	291	0.934	1.05	10.5
CCNC(=O)C#Cc1ccc2c(c1)NC(=O)/C2=C(\Nc1ccc(CN(C)C)cc1)c1ccccc1	536	524	443	2.88	2.57	0.91
CNC(=O)c1ccccc1Nc1nc(Nc2ccc(N3CCOCC3)cc2OC)ncc1Cl	483	452	435	4.17	0.525	16.6
C=C1/C(=C\C=C2/CCC[C@]3(C)[C@@H]([C@H](C)/C=C/[C@H](C)C(C)C)CC[C@@H]23)C[C@@H](O)C[C@@H]1O	400	372	381	7.42	7.42	6.61
NC1(C(=O)N[C@@H](CCO)c2ccc(Cl)cc2)CCN(c2ncnc3[nH]ccc23)CC1	515	463	432	18.6	5.9	3.72
C[C@@H](NC(=O)c1ncnc(N)c1Cl)c1ncc(C(=O)Nc2cc(C(F)(F)F)c(Cl)cn2)s1	316	318	295	18.6	18.6	18.6
CC[C@@H](C)Nc1cc(C(=O)NC2CC3CC[C@@H](C2)N3c2ccc(C(=O)C3CC3)cn2)c(C)cc1C(N)=O (stereo partly drawn)	405	408	330	0.118	0.59	0.59
CC(=O)NCC(=O)N1[C@@H]2CC[C@H]1c1ccc(Nc3ncc(C(F)(F)F)c(NC4CCC4)n3)cc12	443	459	502	10.5	16.6	18.6
c1cc(-c2cnn3cc(-c4ccc(OCCN5CCCCC5)cc4)cnc23)ccn1	456	450	404	9.34	10.5	11.8
CC(C)(Cc1ccc2ccccc2c1)NC[C@@H](O)COc1cccc(Cl)c1C#N	530	480	460	7.42	9.34	9.34
CC(=O)O/N=C1\C(=O)N(Cc2cc(Cl)ccc2Cl)c2ccc(Cl)cc21	382	504	448	7.42	13.2	2.09
CCCCCCCCc1ccc(CCC(N)(CO)CO)cc1	384	395	357	8.33	11.8	10.5
COc1cc(C)c(Sc2cnc(NC(=O)c3ccc(CNC(C)C(C)(C)C)cc3)s2)cc1C(=O)N1CCN(C(C)=O)CC1 (stereo not drawn)	443	354	440	16.6	9.34	18.6
CS[C@H]1SC[C@@H]2C(=O)N(C)[C@H](C(C)C)C(=O)OC[C@H](NC(=O)c3cnc4ccccc4n3)C(=O)N[C@H](C)C(=O)N(C)[C@H]1C(=O)N(C)[C@H](C(C)C)C(=O)OC[C@H](NC(=O)c1cnc3ccccc3n1)C(=O)N[C@H](C)C(=O)N2C	235	320	152	0.0209	0.0833	0.00934
CNC(=O)c1cc(Oc2ccc(NC(=O)Nc3ccc(Cl)c(C(F)(F)F)c3)cc2)ccn1	521	539	518	23.5	18.6	18.6
CC(C)NC(=O)COc1cccc(-c2nc(Nc3ccc4[nH]ncc4c3)c3ccccc3n2)c1	507	523	481	3.72	9.34	13.2
Cc1cnc(Nc2ccc(OCCN3CCCC3)cc2)nc1Nc1cccc([S+](=O)([O-])NC(C)(C)C)c1	547	501	491	8.33	8.33	16.6
CNC(=O)CCc1cc(-c2ccc(-c3ccc(C(F)(F)F)cc3)cc2)n(-c2ccc(N3CCNCC3)cc2)n1	476	487	432	7.42	8.33	4.68
Cc1ccc(-c2ccc3ncc4c(c3n2)n(C2CCN(C(=O)[C@H](C)O)CC2)c(=O)n4C)cn1	492	394	363	0.263	0.295	0.263
Cc1ncc(-c2ccnc(Nc3ccc([S+](C)(=O)[O-])cc3)n2)n1C(C)C	236	307	286	0.332	2.95	0.742
OCCNC1CCCc2c1[nH]c1ccc(-c3ccccc3)cc21 (stereo not drawn)	526	456	462	23.5	10.5	20.9
COc1cc(F)ccc1-c1ncnc(Nc2cccc(C[S+](C)(=N)[O-])c2)n1 (stereo not drawn)	380	428	388	0.934	4.17	1.86
CNC1CCC(N(Cc2cccc(-c3ccncc3)c2)C(=O)c2sc3c(F)ccc(F)c3c2Cl)CC1 (stereo not drawn)	499	448	443	9.34	9.34	8.33
CN1CCC(CNc2ccc3ncc(-c4cccc(OC(F)(F)F)c4)n3n2)CC1	460	416	413	13.2	9.34	7.42
CCNCCc1ccc(CN(CC)c2cc(OC)ccc2[C@@H]2CCc3cc(O)ccc3C2)cc1	515	440	447	7.42	7.42	9.34
CC(C)N(CCCNC(=O)Nc1ccc(C(C)(C)C)cc1)C[C@H]1O[C@@H](n2cc(Br)c3c(N)ncnc32)[C@H](O)[C@@H]1O	506	464	438	16.6	16.6	16.6
CN(C)C[C@@H]1CC[N]2C=C(C3=C2C=CC=C3)C/4=C(/C(=O)NC4=O)C5=C[N](CCO1)C6=C5C=CC=C6	389	368	292	8.33	7.42	14.8
CN(Cc1ccc(/C=C/C(=O)NO)cc1)CC12CC3CC(CC(C3)C1)C2	408	365	303	1.05	1.66	1.05

SMILES	area under concentration-response curve (CU-ACC2 [1])	area under concentration-response curve (NCI-H295R [2])	area under concentration-response curve (CU-ACC1 [3])	AC50 viability (CU-ACC2 [4]) [µM]	AC50 viability (NCI-H295R [5]) [µM]	AC50 viability (CU-ACC1 [6]) [µM]
CNCCCC12CCC(c3ccccc31)c1ccccc12	564	464	488	23.5	16.6	23.5
CCNC(=O)c1cc2c(-c3cc(OCCN4CCCC4)c(Cl)cc3Cl)nc(N)nc2s1	445	433	431	5.74	2.57	5.12
Cc1nc(Nc2ncc(C(=O)Nc3c(C)cccc3Cl)s2)cc(N2CCN(CCO)CC2)n1	461	446	448	23.5	23.5	29.5
Nc1ccccc1NC(=O)c1ccc(CNC(=O)OCc2cccnc2)cc1	523	440	422	14.8	3.72	3.72
COc1ccc(-c2nc(N3CCOCC3)c3sc(CN(C)c4ncc(C(=O)NO)cn4)cc3n2)cn1	281	285	211	0.186	0.059	0.0417
CNC(=O)c1cc(COc2nnc(Nc3ccc(Cl)cc3)c3ccoc23)ccn1	462	423	419	8.33	5.25	1.86
Cc1ccc(NC(=O)c2ccc(CN3CCN(C)CC3)cc2)cc1Nc1nc(-c2cccnc2)cs1	586	547	503	23.5	18.6	23.5
CC(C)[C@H](C(=O)Nc1ccc(C(=O)NO)cc1)c1ccccc1	360	414	308	5.25	2.35	4.17
CC(C)[C@@H](N(CCCN)C(=O)C1=CC=C(C)C=C1)C/2=C(\CC3=CC=CC=C3)C(=O)C4=C(O2)C=C(Cl)C=C4	565	359	448	26.3	2.35	13.2
Nc1cc(C(F)(F)F)c(-c2nc(N3CCOCC3)nc(N3CCOCC3)n2)cn1	413	441	381	16.6	3.72	5.25
CN(C)C1CCN(C(=O)c2ccc(NC(=O)Nc3ccc(-c4nc(N5CCOCC5)nc(N5CCOCC5)n4)cc3)cc2)CC1	345	485	411	4.17	–	2.35
NCCCCNCCCN	422	107	312	33.2	–	16.6
Oc1cc(-c2nc(-c3ccccc3)[nH]c2-c2ccncc2)ccc1Cl	514	522	464	16.6	–	20.9
CN1C(=O)/C(=C(NC2=CC=C(I)C=C2F)\C3=C1\N=C/N(C[C@@H](O)CO)C3=O)F	497	534	431	11.8	–	8.33
C=C1/C(=C\C=C2/CCC[C@]3(C)[C@@H]([C@H](C)CCCC(C)(C)O)CC[C@@H]23)C[C@@H](O)C[C@@H]1O	329 and 416	364	408 and 314	14.8	–	16.6
CC(=O)Nc1ccc(C(=O)NC(C)(C)C)cc1	247	284	331	0.295	–	5.25
CN1\N=C(N)/C2=C[N]([C@@H]3O[C@H](CO[P](O)(O)=O)[C@@H](O)[C@H]3O)C4=C2C1=NC=N4	464	493	429	4.68	–	11.8
C[C@]12Cc3cn[nH]c3C[C@@H]1CC[C@@H]1[C@@H]2CC[C@@]2(C)[C@H]1CC[C@]2(C)O	214	312	335	0.263	–	0.0132
CN[C@@H]1CN(C[C@H]1OC)C2=NC3=C(C=C2)C(=O)C(=C\N3C4=NC=CS4)/C(O)=O	474	445	475	4.56	–	10.2
C[C@@H]\1CC(=O)N\N=C1C2=CC=C(NN=C(C#N)C#N)C=C2	425	363	375	16.6	–	11.8
c1cc(N[C@@H]2CCNC2)nc(-c2cnc3ccc(-c4cn[nH]c4)cn23)c1	380	409	331	41.7	–	0.00662
CCC(=C/[C@H](C)C/C=C/C(C)=C/[C@@H](C)C(=O)[C@@H](C)[C@H](O)[C@@H](C)C/C(C)=C/C(=O)O)/C=C/[C@@H]1OC(=O)C=C[C@@H]1C	344	333	230	13.2	–	0.00105
Cn1c(CCCCCCC(=O)NO)nc2cc(N(CCCl)CCCl)ccc21	479	497	439	5.9	–	10.5
CN1C(=O)C(=C/2N(C(=O)N(C3CC3)C(=O)C2=C1/NC4=CC=C(I)C=C4F)C5=CC=CC(=C5)NC(C)=O)\C	372	408	305	0.0661	–	0.742
O=C1[C@H](Cc2ccc(O)cc2)N2C(=O)CCN(C(=O)NCc3ccccc3)[C@H]2CN1Cc1cccc2ccccc12	554	496	531	4.68	–	11.8
COC1=CC=C(C=C1)C/2=C/OC3=C(C(=CC(=C3)O)O)C2=O	164	208	267	0.295	–	0.0661
Cc1c[nH]c2ncnc(N3CCC(CN)(C(=O)Nc4cccc(OC(=O)N(C)C)c4)CC3)c12	512	518 and 295	427 and 309	18.6	–	10.5
